Data on one compound can be found in patent publication EP0821956A1, “Method for treating disruptive behavior disorders” (ELI LILLY AND COMPANY, priority 1996, dated 1998).

For assay [1], the target named is D2 receptor subtype (Homo sapiens, UniProt P14416). The assay can be described thus: pharmacological studies at the D2 receptor subtype.
For assay [2], the target named is ^3H-oxotremorine-M binding (muscarinic receptors). The assay is described as follows: 3H-oxotremorine-M binding study. The following applies: inhibition of binding of ^3H-oxotremorine-M; read-out: inhibition constant (Ki).
Assay [3] deals with m4 receptors (Homo sapiens, UniProt P08173). Type of assay: cell-based. The following applies: CHO m4 cells treated with pertussis toxin.
m4 receptors, sequence (P08173 whole entry): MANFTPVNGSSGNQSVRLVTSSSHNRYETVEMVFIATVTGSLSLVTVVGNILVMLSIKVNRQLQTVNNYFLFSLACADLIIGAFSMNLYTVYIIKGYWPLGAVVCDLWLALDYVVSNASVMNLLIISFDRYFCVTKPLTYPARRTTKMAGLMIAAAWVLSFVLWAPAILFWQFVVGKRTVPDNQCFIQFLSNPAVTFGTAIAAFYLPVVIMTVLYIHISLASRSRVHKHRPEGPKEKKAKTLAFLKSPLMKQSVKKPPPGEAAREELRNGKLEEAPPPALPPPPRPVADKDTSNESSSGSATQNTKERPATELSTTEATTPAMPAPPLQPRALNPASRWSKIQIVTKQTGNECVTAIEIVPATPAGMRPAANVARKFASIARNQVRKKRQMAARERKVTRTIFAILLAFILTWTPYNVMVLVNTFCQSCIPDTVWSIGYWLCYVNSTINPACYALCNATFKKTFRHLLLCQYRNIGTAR

D2 receptor subtype, sequence (P14416 whole entry): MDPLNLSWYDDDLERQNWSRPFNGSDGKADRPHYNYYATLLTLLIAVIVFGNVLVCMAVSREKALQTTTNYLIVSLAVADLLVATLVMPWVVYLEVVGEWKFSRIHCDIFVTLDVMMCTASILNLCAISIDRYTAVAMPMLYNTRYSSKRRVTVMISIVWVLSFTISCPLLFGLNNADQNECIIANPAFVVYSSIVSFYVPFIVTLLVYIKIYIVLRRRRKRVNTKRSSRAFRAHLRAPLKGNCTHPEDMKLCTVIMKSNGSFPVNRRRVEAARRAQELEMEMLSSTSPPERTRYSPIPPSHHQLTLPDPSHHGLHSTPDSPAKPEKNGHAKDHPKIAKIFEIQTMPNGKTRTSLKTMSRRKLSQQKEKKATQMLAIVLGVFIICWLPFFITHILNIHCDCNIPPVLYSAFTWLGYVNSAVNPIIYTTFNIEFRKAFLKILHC

With `CCCCCCOc1nsnc1C1=CCCN(C)C1` [xanomeline, 3-(4-hexyloxy-1,2,5-thiadiazol-3-yl)-1,2,5,6-tetrahydro-1-methylpyridine], the “activity at the D2 receptor subtype” value in assay [1] is given as “active”. The Ki in assay [2] was found to be 2 nM. In assay [3], the “formation of cAMP” value was “efficaciously and potently stimulated the formation of cAMP”.
